Columns and labels:
[1] = system: IFN-γ; assay: IFN-γ expression level of sorted CD4-positive memory T-cells of MS patients (ELISA of culture supernatant); type: in vivo, human; conditions: 0.3 mg single oral
Description: (§1) A single dose of compound 31, which is a synthetic glycolipid of the present invention, described in the first aspect was orally administered to each of 2 MS patients (subjects) shown in Table 2 above after obtainment of informed consent. The dose was set to 0.3 mg per person.
(§2) Subsequently, T-cell subfractions were prepared from the peripheral blood of each subject by using the density gradient centrifugation method. First, a total of 20 mL of blood was collected from the vein of each subject 24 hours (1st day), 48 hours (2nd day), 72 hours (3rd day), 168 hours (7th day), and 192 hours (8th day) after the administration of compound 31 by using two 10-mL heparin sodium-containing vacuum blood collection tubes. For a control, 20 mL of blood was similarly collected from the vein of each subject one day before the administration of compound 31.
(§3) The collected PBMCs were stained with antibodies by the following method. First, 10 μL of a solution consisting of 20 μL of MACS buffer, 0.25 μL of APC-Cy7-anti-CD3 antibody (BioLegend, Inc.), 1 μL of PB-anti-CD4 antibody (BioLegend, Inc.), 1 μL of PerCP-Cy5.5-anti-CD45RA antibody (BioLegend, Inc.), and 1 μL of PC7-anti-CD56 antibody (Beckman Coulter, Inc.) was added to 6×10^6 cells of PBMCs, thoroughly mixed by vortexing, and then left on ice for 20 minutes. CD56 is a detection marker of cells having NK activity, and CD3^−CD56^− cells indicate being antigen-presenting cells (APCs). […]
(§4) mCD4T and APC obtained by the sorting were each suspended in a medium consisting of 500 mL of RPMI1640 (GIBCO/Thermo Fisher Scientific Inc.), 5 mL of glutamine (200 mM, Wako Pure Chemical Industries, Ltd.), 5 mL of Pen/strep (10,000 U/mL, GIBCO/Thermo Fisher Scientific Inc.), 0.5 mL of 2-mercaptoethanol (GIBCO/Thermo Fisher Scientific Inc.), and 50 mL of 10% (v/v) Cellect FETAL BOVINE SERUM (MP Biomedicals, LLC), and the number of cells was measured. […]
(§5) After the culture, a culture supernatant was collected, and IFN-γ, IL-4, IL-17, and GM-CSF were measured by the ELISA method. […]

[2] = system: IL-4; assay: IL-4 expression level of sorted CD4-positive memory T-cells of MS patients (ELISA of culture supernatant); type: in vivo, human; conditions: 0.3 mg single oral
Description: as §1, §2, §3, §4, §5

[3] = Disposition after single oral dose, rat; type: in vivo; conditions: male rat, 10 mg/kg single oral, 14C-labeled, fasting
Description: After a single dose of compound 31 labeled with ^14C was orally administered at a predetermined dose to each of a male mouse, a male rat, and a male cynomolgus monkey under fasting conditions, the concentration in blood was measured after a lapse of a given time, and parameters such as maximum plasma concentration Cmax, time Tmax to reach the maximum plasma concentration, half-life t1/2, area under curve AUC0-∞, mean retention time MRT0-∞, and bioavailability BA were calculated. The concentration in blood in humans (normal subjects) was measured and each of the parameters was calculated, in the similar manner as above except that ^14C-unlabeled compound 31 was used.
In the tables, “N.D.” means not detected.

[4] = Disposition after single oral dose, MS patients; type: in vivo, human; conditions: 0.3 mg/body single oral
Description: In the similar manner as in Example 5, a single dose of compound 31 labeled with ^14C was orally administered to each of 2 MS patients (subjects) after obtainment of informed consent, and the concentration of the compound in blood was measured and each parameter was calculated by collecting blood after a lapse of a given time.

Structure (SMILES): CCCCCCCCCCCCCCCCCCCCCCCC(=O)NC(COC1OC(CO)C(O)C(O)C1O)[C@H](O)C(O)CCCCC (stereo in doubt) [compound 31, (2S,3S,4R)-1-O-(α-D-galactosyl)-2-(N-tetracosanoylamino)-1,3,4-nonanetriol]
- IFNγ expression level ([1]; day 8, MBP stimulation (culture condition B), day −1 value 28528.18): 7006.30
- IFNγ expression level ([1]; day 8, OVA stimulation (culture condition A), day −1 value 23489.34): 5032.43
- change of expression level of IFN-γ ([1]; day8 vs day-1): decreased
- IL-4 expression level ([2]; day 8, MBP stimulation, day −1 value 3.63): 6.38
- IL-4 expression level ([2]; day 8, OVA stimulation, day −1 value 3.66): 7.19
- change of expression level of IL-4 ([2]; day8 vs day-1): increased
- AUC(0-inf) ([3]; blood): 3330 ng·h/mL
- AUC(0-t) ([3]; blood): 3130 ng·h/mL
- half-life ([3]; blood): 26 h
- MRT inf ([3]; blood, read-out: MRT0-∞): 32.4 h
- BA [3]: 0.51%
- Rate of absorption [3]: 0.96%
- concentration in blood ([3]; 4 h): 31
- concentration in blood ([3]; 8 h): 128
- concentration in blood ([3]; 12 h): 101
- concentration in blood ([3]; 24 h): 47.1
- concentration in blood ([3]; 48 h): 18.5
- concentration in blood ([3]; 72 h): 10.2
- Cmax ([3]; plasma): 128 ng/mL
- Tmax ([3]; plasma): 8 h
- concentration in blood in MS patients as compared with normal persons [4]: low concentration in blood
- AUC(0-t) ([4]; human, blood): 1.41 ng·h/mL
- Cmax ([4]; human, blood): 0.122 ng/mL
- Tmax ([4]; human, blood): 18 h

Reference: patent US12447167B2, “GM-CSF-producing t-cell control agent and Th1/Th2 immune balance regulator” (National Center of Neurology and Psychiatry, priority 2014, dated 2025)
